We go through 2 compounds from patent US20220105109A1, “METHODS OF TREATING COVID-19 AND COMPOSITIONS THEREFOR” (priority 2020, published 2022).

The test system of assay [1] is COVID-19. As to conditions: COVID-19 patients who had been taking famotidine; cited from earlier work.
In assay [2] the test system is COVID-19. The assay is described as follows: Anecdotal case of a subject with COVID-19 taking ASA. Format: in vivo. Conditions: one person; at least 0.4 g ASA orally on at least a few days of the approximately 14-day illness; also 80 mg famotidine daily.
The conditions of assay [3]: cited from earlier work; for suppressing ACE-inhibitor induced cough: patients.

Each structure is given as a SMILES string. Read-outs that look alike come from different tables or passages of the source.

Turning to `NC(N)=Nc1nc(CSCCC(N)=NS(N)(=O)=O)cs1` [famotidine], the “clinical outcomes (intubations, deaths, symptoms) vs patients not taking famotidine” value in the assay on COVID-19 [1] was “better outcomes”.

Take `CC(=O)Oc1ccccc1C(=O)O` [ASA, acetylsalicylic acid]: in the assay with COVID-19 [2], the “common respiratory symptoms and effects of COVID-19 (shortness of breath, cough)” value was “none of the common respiratory symptoms and effects of COVID-19”. Further, in assay [3] (500 mg ASA daily), the “cough severity and cough frequency” value is “Significant reductions”; the “patients with cough completely abolished” value is “five of 14”; the “patients with cough significantly reduced” value is 13 of 14. For the same compound, in assay [3] (intermediate dose, 500 mg ASA daily), the “suppressing ACE-inhibitor induced cough” value is listed as “extremely effective”. Also, in assay [3] (low dose, 100 mg ASA daily), the “suppressing ACE-inhibitor induced cough” value is “ineffective”.
